Laboratory results taken from patent US20250049737A1, “Lauflumide and derivatives thereof for treating chronic fatigue syndrome and myalgic encephalomyelitis/chronic fatigue syndrome (ME/CFS)” (NLS Pharmaceutics AG, priority 2021, published 2025).
Entries after “also recorded” stand apart in the source; their conditions may differ.

What was measured:
[1] = target: T1, Histamine 2 (h) (H2) (agonist radioligand) (Homo sapiens, UniProt P25021); experiment: Radioligand binding panel (Eurofins CEREP), histamine H2; conditions: % inhibition of control specific binding
T1 construct: Eurofins CEREP (contract study 100014859)
Method: Lauflumide is tested at 10^-5 M, calculated as a % inhibition of control specific binding of a radioactively labeled ligand specific for each target.
This binding profile panel was broadly defined with roughly an equal number of selective, central and peripheral therapeutically relevant targets, including native animal tissues, radioligands and specific enzymes involved in cell cycle regulation in accordance with Eurofins Standard Operating Procedure (www.eurofins.fr).
For radioligand binding experiments, the half maximal inhibitory concentration (IC50) and the half maximal effective concentration (EC50) values were determined (via computer software) by nonlinear regression analysis of the competition curves using Hill equation curve fitting. The inhibition constants (Ki) were calculated using the Cheng-Prusoff equation (Ki=IC50/(1+(L/KD)), where L is the concentration of radioligand in the assay, and KD is the affinity of the radioligand for the receptor.
The results are expressed as a % control specific binding ([measured specific binding/control specific binding]×100) and as a % inhibition of control specific binding (100−[(measured specific binding/control specific binding)×100]) obtained in the presence of the test compounds. […]

[2] = test system: Rat model of severe fatigue; experiment: Rat model of severe fatigue (sleep deprivation): recording of circadian locomotor activity; assay type: in vivo, Rats, Sprague-Dawley; conditions: for Period after administration during which the distance travelled was dramatically increased: 2-h period analysis; for Distance travelled during the 12-h dark phase / Total distance travelled during the full 24-h period / Difference of distance travelled between the dark phase and the light phase / Distance travelled during the 12-h light phase: days 1, 2 and 3
Method: In the following example, Lauflumide is also called NLS-4.
Animals are individually housed in transparent polycarbonate cages (1354G Eurostandard Type IV cage, Tecniplast, Italy, 595×380×200 mm, floor area=1820 cm^2) filled with water (23±1° C.) to a height of 1.5 cm. A platform (5 cm height, 6.5 cm diameter) was located at the center of the cage. Animals can stay on the platform in order to stay dry but falls from it when it falls in deep sleep. […] During this period, animals were placed in a modified light/dark cycle with variable durations of the light and dark periods which change every day. This procedure is intended to disrupt the circadian rhythm.
The Sham group was housed in normal condition for the same period under a 12/12 h light/dark cycle.
After the end of the fatigue period, animals were placed in transparent polycarbonate cages (Type E, Iffa Credo, France, 450×300×200 mm, floor area=1032 cm^2), under a 12 h/12 h cycle. Cages were covered with a stainless steel grid in which food and a bottle are placed. A stainless steel removable divider separated food and water. The cages were placed in infrared photobeam detection systems (Acti-track, LSI Leticca, Panlab) allowing to record continuously the distance travelled in the cage. Locomotor activity was recorded continuously for 3 days. The test started at the beginning of the dark phase of the light/dark cycle.
Seventy-six animals were subjected to the fatigue procedure and to the tests as described above. Twelve animals (Sham group) were housed in standard condition.
After the end of the Fatigue procedure, animals were divided into 10 groups which received before tests (total: 3 administrations) a per-os (p.o., oral gavage) administration of: • Sham (no fatigue) group (N=12): Vehicle. • Control group (N=11): Vehicle. • Modafinil 32 (N=10): modafinil (32 mg/kg). • Modafinil 64 (N=10): modafinil (64 mg/kg). • Modafinil 128 (N=5): modafinil (128 mg/kg). • NLS-4 16 (N=5): NLS-4 (16 mg/kg). • NLS-4 32 (N=10): NLS-4 (32 mg/kg). • NLS-4 64 (N=10): NLS-4 (64 mg/kg). • NLS-4 128 (N=10): NLS-4 (128 mg/kg). • NLS-4 256 (N=5): NLS-4 (256 mg/kg).
Read-out: distance travelled during 24-h periods, 12-h dark and light periods and during 2-h periods.
Data are expressed as mean and standard error of mean (SEM).
Statistical analyses: Student's t test, repeated measure ANOVA.
A difference is considered statistically significant at p≤0.05.

[3] = 16 mg/kg p.o., vs. Control (fatigue) group
[4] = 16 mg/kg p.o., vs. Modafinil 32 group (32 mg/kg)
[5] = 16 mg/kg p.o., vs. Modafinil 64 group (64 mg/kg)
[6] = 16 mg/kg p.o., vs. Sham (no fatigue) group, listed as NLS-4
[7] = 32 mg/kg p.o., vs. Control (fatigue) group
[8] = 32 mg/kg p.o., vs. Sham (no fatigue) group
[9] = 64 mg/kg p.o., vs. Control (fatigue) group
[10] = 64 mg/kg p.o., vs. Sham (no fatigue) group
[11] = 128 mg/kg p.o., vs. Control (fatigue) group
[12] = 128 mg/kg p.o., vs. Sham (no fatigue) group
[13] = 256 mg/kg p.o., vs. Control (fatigue) group
[14] = 256 mg/kg p.o., vs. Sham (no fatigue) group

T1 sequence (P25021 whole entry): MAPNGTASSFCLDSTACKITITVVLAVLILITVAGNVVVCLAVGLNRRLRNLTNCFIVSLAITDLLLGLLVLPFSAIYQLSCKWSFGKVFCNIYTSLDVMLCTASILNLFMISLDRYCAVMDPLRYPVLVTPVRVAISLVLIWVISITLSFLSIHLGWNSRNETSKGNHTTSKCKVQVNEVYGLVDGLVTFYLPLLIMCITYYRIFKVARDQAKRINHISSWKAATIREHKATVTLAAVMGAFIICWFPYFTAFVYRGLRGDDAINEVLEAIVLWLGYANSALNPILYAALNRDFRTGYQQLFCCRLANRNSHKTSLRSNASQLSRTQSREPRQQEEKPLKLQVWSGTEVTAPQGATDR

SMILES: NC(=O)C[S@@+]([O-])C(c1ccc(F)cc1)c1ccc(F)cc1 [Lauflumide, 2-[(R)-((bis(4-fluorophenyl)methane)sulfinyl)]acetamide]
- % Inhibition at 10^−5M [1]: 46.6%
- Dose reducing the impairment of circadian rhythm, relative to modafinil ([2]; 16 mg/kg NLS-4 vs. 64 mg/kg modafinil): four times lower
- Increase in locomotor activity compared with modafinil (32 mg/kg) ([2]; 16 mg/kg p.o.): significantly higher
- Increase in locomotor activity compared with modafinil (64 mg/kg) ([2]; 16 mg/kg p.o.): of the same magnitude
- Motor activity during the first 2-h periods following the dosing ([2]; 16 mg/kg p.o.): increased
- Period after administration during which the distance travelled was dramatically increased ([2]; 16 mg/kg p.o.): 2 h
- Distance travelled during the 12-h dark phase [2, 3]: higher
- Total distance travelled during the full 24-h period [2, 3]: higher
- Difference of distance travelled between the dark phase and the light phase ([2]; 16 mg/kg p.o., vs. Control (fatigue) group, listed as NLS-4): higher or tended to be higher; also recorded: increased
- Difference of distance travelled between the dark phase and the light phase [2, 4]: higher than the Modafinil 32 group on days 2 and 3 only
- Distance travelled during the 12-h light phase [2, 4]: higher than the Modafinil 32 group during the dark period on day 3 only and during the light period on day 1 only
- Total distance travelled during the full 24-h period [2, 4]: higher than the Modafinil 32 group on day 3 only
- Difference of distance travelled between the dark phase and the light phase [2, 5]: not significantly different
- Distance travelled during the 12-h dark phase [2, 5]: not significantly different
- Distance travelled during the 12-h light phase [2, 5]: not significantly different
- Total distance travelled during the full 24-h period [2, 5]: not significantly different
- Total distance travelled during the full 24-h period ([2]; 16 mg/kg p.o., vs. Sham (no fatigue) group): not significantly different
- Difference of distance travelled between the dark phase and the light phase [2, 6]: increased the distance travelled in comparison with the Sham group during day 3 only; also recorded: higher than the Sham group on day 3 only
- Distance travelled during the 12-h dark phase [2, 6]: increased the distance travelled in comparison with the Sham group during the light phase on day 1 and during the dark phase on day 3; also recorded: higher than the Sham group during the dark period on day 3 only
- Distance travelled during the 12-h light phase [2, 6]: increased the distance travelled in comparison with the Sham group during the light phase on day 1 and during the dark phase on day 3; also recorded: higher than the Control group during the light periods on day 1 only
- Period after administration during which the distance travelled was dramatically increased ([2]; 32 mg/kg p.o.): 8 h
- Distance travelled during the 12-h dark phase [2, 7]: higher
- Distance travelled during the 12-h light phase [2, 7]: not significantly different
- Total distance travelled during the full 24-h period [2, 7]: higher
- Difference of distance travelled between the dark phase and the light phase ([2]; 32 mg/kg p.o., vs. Control (fatigue) group, listed as NLS-4): higher or tended to be higher; also recorded: increased
- Difference of distance travelled between the dark phase and the light phase [2, 8]: increased the distance travelled in comparison with the Sham group during day 3 only
- Distance travelled during the 12-h dark phase [2, 8]: increased the distance travelled in comparison with the Sham group during the light phase on days 1, 2 and 3, and during the dark phase on days 2 and 3
- Distance travelled during the 12-h light phase [2, 8]: increased the distance travelled in comparison with the Sham group during the light phase on days 1, 2 and 3, and during the dark phase on days 2 and 3
- Total distance travelled during the full 24-h period [2, 8]: increased the distance travelled in comparison with the Sham group during days 1, 2 and 3
- Distance travelled during the 12-h dark phase [2, 9]: higher
- Distance travelled during the 12-h light phase [2, 9]: higher for the NLS-4 64 group than for the Control group during the dark phase on days 1, 2 and 3 and during the light phase on day 3 only
- Total distance travelled during the full 24-h period [2, 9]: higher
- Difference of distance travelled between the dark phase and the light phase ([2]; 64 mg/kg p.o., vs. Control (fatigue) group, listed as NLS-4): higher or tended to be higher; also recorded: increased
- Distance travelled during the 12-h dark phase [2, 10]: increased the distance travelled in comparison with the Sham group during both the dark and light phase on days 1, 2 and 3
- Distance travelled during the 12-h light phase [2, 10]: increased the distance travelled in comparison with the Sham group during both the dark and light phase on days 1, 2 and 3
- Total distance travelled during the full 24-h period [2, 10]: increased the distance travelled in comparison with the Sham group during days 1, 2 and 3
- Distance travelled during the 12-h dark phase [2, 11]: higher
- Distance travelled during the 12-h light phase [2, 11]: higher
- Total distance travelled during the full 24-h period [2, 11]: higher
- Difference of distance travelled between the dark phase and the light phase ([2]; 128 mg/kg p.o., vs. Control (fatigue) group, listed as NLS-4): higher or tended to be higher; also recorded: increased
- Distance travelled during the 12-h dark phase [2, 12]: increased the distance travelled in comparison with the Sham group during both the dark and light phase on days 1, 2 and 3
- Distance travelled during the 12-h light phase [2, 12]: increased the distance travelled in comparison with the Sham group during both the dark and light phase on days 1, 2 and 3
- Total distance travelled during the full 24-h period [2, 12]: increased the distance travelled in comparison with the Sham group during days 1, 2 and 3
- Distance travelled during the 12-h dark phase [2, 13]: higher
- Distance travelled during the 12-h light phase [2, 13]: higher
- Total distance travelled during the full 24-h period [2, 13]: higher
- Difference of distance travelled between the dark phase and the light phase ([2]; 256 mg/kg p.o., vs. Control (fatigue) group, listed as NLS-4): higher or tended to be higher; also recorded: increased
- Difference of distance travelled between the dark phase and the light phase [2, 14]: increased the distance travelled in comparison with the Sham group during day 3 only
- Distance travelled during the 12-h dark phase [2, 14]: increased the distance travelled in comparison with the Sham group during both the dark and light phase on days 1, 2 and 3
- Distance travelled during the 12-h light phase [2, 14]: increased the distance travelled in comparison with the Sham group during both the dark and light phase on days 1, 2 and 3
- Total distance travelled during the full 24-h period [2, 14]: increased the distance travelled in comparison with the Sham group during days 1, 2 and 3
- Distance travelled during the dark phase (2-h period analysis), dose relation ([2]; 16-256 mg/kg p.o.): dose-dependently increased
- Period after administration during which the distance travelled was dramatically increased ([2]; 64-256 mg/kg p.o.): 10 h
